Experiments:
[1] = test system: Human bone marrow cells from the same AML patient after chemotherapy; assay: Colony formation of bone marrow hematopoietic cells in methyl cellulose semi-solid culture medium; assay type: cell-based
Experimental: (§1) To explore the effect of TPA alone or combined rhG-CSF on bone marrow hematopoietic cells proliferation and colony formation ability which from patients of acute myeloid leukemia (AML) in the period of bone marrow suppression in vitro and to observe the effect of TPA on bone marrow stromal cells(BMSCs) proliferation or inhibition from patients of AML in the period of myelosuppression and the healthy persons.
• 1) Human bone marrow cells from the same AML patient after chemotherapy were cultured by methyl cellulose semi-solid culture medium. Groups: Blank, TPA (10 ng/ml), G-CSF (50 ng/ml), TPA (10 ng/ml)+GCSF (50 ng/ml). The experiments were repeated for 4 times. • 2) The stroma cells of bone marrow from the healthy human and the AML patient after chemotherapy were cultured by methyl cellulose semi-solid culture medium. Different TPA concentrations were added. Groups: Blank, TPA (0.1 ng/ml), TPA (1.0 ng/ml), TPA (5 ng/ml), TPA (10 ng/ml), TPA (20 ng/ml), TPA (30 ng/ml). • 3) Cultivation of BMSCs from healthy persons and patients of AML in the bone marrow suppression phase in vitro, added to TPA of different concentrations, 0.1 ng/ml, 1.0 ng/ml, 5 ng/ml, 10 ng/ml, 20 ng/ml, 30 ng/ml, and set up a control to detect cell proliferation or inhibition with CCK8 method. Results and Conclusion: • 1. Compared the clones of four groups in incomplete medium, in the control group a small cell clusters can be seen for 24-72 hours, but the cells were dead as time prolong. Cultivated 14 days, control group have no clones formation, CFU-GM are dominated for G-CSF group, TPA alone and combination with G-CSF group have myeloid colony formation, while BFU-E and CFU-GEMM. […] Compared the clones of different concentration of TPA stimulation in incomplete medium, the total clones of 5 ng/ml, 10 ng/ml, 20 ng/ml group are higher than other groups, including 10 ng/ml in the highest, there are statistical significance (both P<0.05). While decreasing or increasing TPA concentration can not improve the colony number. The better concentration of TPA to stimulate the colony formation is 5˜20 ng/ml. […] Compared the clones of different concentration of TPA and G-CSF (50 ng/ml) stimulation in incomplete medium. Combination with G-CSF the better concentration of TPA is 1˜10 ng/ml (both P<0.05). Combination with G-CSF the best concentration of TPA is 5 ng/ml and 1 ng/ml. for CFU-GM and CFU-GEMM. The main clone types are myeloid colones, CFU-GM, also have CFU-GEMM and fewer BFU-E. • 4. […] While TPA group and G-CSF group the number of clones of TPA group and G-CSF group have no statistical significance (P=0.577). • 5. […] Meanwhile, TPA promote bone marroe stromal cells from the AML patients proliferation of concentration 5˜30 ng/ml (cell number 2×10^5/ml). 5 ng/ml of TPA is the best concentration of promoting proliferation, and G-CSF had no effect on the growth of BMSCs from healthy persons or AML patients.

[2] = test system: bone marrow stromal cells (BMSCs) from patients of AML in the bone marrow suppression phase; assay: BMSC proliferation or inhibition, CCK8 method, AML patients; assay type: cell-based, human
Experimental: as §1
• 1) Human bone marrow cells from the same AML patient after chemotherapy were cultured by methyl cellulose semi-solid culture medium. Groups: Blank, TPA (10 ng/ml), G-CSF (50 ng/ml), TPA (10 ng/ml)+GCSF (50 ng/ml). The experiments were repeated for 4 times. • 2) The stroma cells of bone marrow from the healthy human and the AML patient after chemotherapy were cultured by methyl cellulose semi-solid culture medium. Different TPA concentrations were added. Groups: Blank, TPA (0.1 ng/ml), TPA (1.0 ng/ml), TPA (5 ng/ml), TPA (10 ng/ml), TPA (20 ng/ml), TPA (30 ng/ml). • 3) Cultivation of BMSCs from healthy persons and patients of AML in the bone marrow suppression phase in vitro, added to TPA of different concentrations, 0.1 ng/ml, 1.0 ng/ml, 5 ng/ml, 10 ng/ml, 20 ng/ml, 30 ng/ml, and set up a control to detect cell proliferation or inhibition with CCK8 method. Results and Conclusion: • 1. […]

SMILES: CCCCCCCCCCCCCC(=O)O[C@@H]1[C@@H](C)[C@@]2(O)[C@@H](C=C(CO)C[C@]3(O)C(=O)C(C)=C[C@@H]23)[C@@H]2C(C)(C)[C@]12OC(C)=O [TPA, 12-O-tetradecanoylphorbol-13-acetate]
- best concentration for hematopoietic cell clone formation (highest total clones) ([1]; TPA alone, incomplete medium): 10 ng/mL
- colony types whose formation is promoted (CFU-GM, CFU-GEMM, BFU-E) ([1]; bone marrow of AML patients in the period of bone marrow suppression, in vitro): promoted the formation of CFU-GM, CFU-GEMM, and BFU-E
- total number of clones ([1]; incomplete medium, cultivated 14 days, TPA 10 ng/ml, G-CSF 50 ng/ml): higher than G-CSF group
- best concentration of promoting proliferation of BMSCs [2]: 5 ng/mL

Reference: patent publication US12539289B2, “Phorbol ester compositions and methods of use for treating or reducing the duration of cytopenia” (BIOSUCCESS BIOTECH CO., LTD., priority 2014, dated 2026)
